Reference: publication PMC8474116, “Discovery of Novel Acetamide-Based Heme Oxygenase-1 Inhibitors with Potent In Vitro Antiproliferative Activity” (Journal of Medicinal Chemistry, 2021)
Converted amounts (≈) assume the structure as drawn.

Tests used:
HO = HO enzymatic activity in U87MG cell line (cell lysate, bilirubin formation); type: cell-based, human; conditions: U87MG treated with 10 μM
Experimental: U87MG cells were incubated for 24 h in the presence or absence of 10 μM of compound 7l. Total HO activity in the cell lysate was determined by measuring the bilirubin formation using the difference in absorbance at 464–530 nm.[2] Reaction mixtures (500 μL) consisted of 20 mM of Tris–HCl, pH 7.4, 1 mg/mL of cell lysate, 0.5–2 mg/mL of biliverdin reductase, 1 mM of NADPH, 2 mM of glucose 6-phosphate (G6P), 1 U of G6P dehydrogenase, 25 μM of hemin, and 10 μL of DMSO. Incubations were carried out for 60 min at 37 °C in a circulating water bath in the dark. Reactions were stopped by adding 1 volume of chloroform. After recovering the chloroform phase, the amount of bilirubin formed was measured with a double-beam spectrophotometer as OD464–530 nm (extinction coefficient, 40 mM/cm for bilirubin). One unit of the enzyme was defined as the amount of enzyme catalyzing the formation of 1 nmol of bilirubin/mg protein/h.

HO-1 [1] = test: HO-1 immunolocalization (immunofluorescence) in U87MG; type: cell-based, human; conditions: 10 μM, 48 h
Experimental: To determine the cellular distribution of heme oxygenase-1 in tumor cells, immunofluorescence analysis was performed as previously described.[62] Tumor cell lines were cultured on glass coverslips fixed in 4% paraformaldehyde in PBS (15′ at room temperature), permeabilized with 0.2% of Triton X100, blocked with 0.1% of BSA in PBS, and then probed with rabbit HO-1 antibody. […] DNA was counterstained stained with DAPI (#940110, Vector Laboratories). After a series of PBS and double-distilled water washes, the fixed cells were cover-slipped with the Vectashield mounting medium (Vector Laboratories, Inc., Burlingame, CA). Localization of the antibody was performed by Zeiss fluorescent microscopy.

hERG potassium channel = target: T1, hERG potassium channel (Homo sapiens, UniProt Q12809); test: hERG human potassium ion channel binding (Eurofins)
T1 construct: Eurofins Scientific (contract assay) 4094
Excerpt: (§1) In vitro ADMET testing has been performed at Eurofins Scientific.

VEGF = VEGF intracellular expression by Western blot, U87MG; type: cell-based, human; conditions: 10 μM, 48 h
Experimental: (§2) Proteins were extracted from total cell lysate, as previously described.[61] Briefly, cell lines were added to a buffer containing 20 mM Tris (pH 7.4), 2 mM EDTA, 0.5 mM EGTA, 50 mM mercaptoethanol, and […] sucrose supplemented with phosphatase and protease inhibitor cocktails (Roche Diagnostics, Monza, Italy). Subsequently, protein samples were sonicated twice for 20′ by using an ultrasonic probe, followed by centrifugation at 10 000g for 10 min at 4 °C. Sample proteins (30 μg) were diluted in 4X NuPage LDS sample buffer (Invitrogen, NP0007), heated at 80 °C for 5 min, and then separated on a Biorad Criterion XT 4–15% Bis–Tris gel (BIO-RAD) by electrophoresis and then transferred to a PVDF membrane (BIO-RAD). Blots were blocked using the Odyssey Blocking Buffer (LI-COR Biosciences) and probed with appropriate antibodies: HO-1 antibody (GeneTex GTX101147), goat polyclonal anti-VEGF (cat. no. sc-1836, Santa Cruz Biotechnology), and rabbit polyclonal anti-β-tubulin (cat n.sc-9104, Santa Cruz Biotechnology) and β-actin antibody (GeneTex GTX109639).
(§3) The secondary antibodies goat antirabbit (Odyssey, #926-32211; Odyssey #926-68021) and donkey antigoat IRDye 800CW (cat #926-32214; Li-Cor Biosciences) were used at 1:7000. Blots were scanned, and densitometric analysis was performed with the Odyssey Infrared Imaging System. Values were normalized to β-actin and to β-tubulin.

HO-1 [2] = test: HO-1 protein expression by Western blot, U87MG; type: cell-based, human; conditions: 10 μM, 48 h
Experimental: as §2, §3

[3] = Microsomal stability, human liver microsome assay (Eurofins); type: in vitro ADME; conditions: human liver microsomes, protein 0.1 mg/mL
Excerpt: as §1

[4] = Aqueous solubility in simulated gastric fluid (Eurofins); type: physicochemical
Experimental: In vitro ADMET testing has been performed at Eurofins Scientific. Aqueous solubility in simulated gastric fluid (catalogue product number 2061), intrinsic clearance in liver microsome-human (catalogue product number 607), CYP2D6 and CYP3A4 inhibition (catalogue product numbers 1338 and 391, respectively), and hERG human potassium ion channel binding (catalogue product number 4094) were conducted at Eurofins following their experimental protocols (https://www.eurofins.com/).

HO-1 [5] = test: HO-1 protein expression by Western blot, A172; type: cell-based, human; conditions: A172, 10 μM, 48 h
Experimental: as §2, §3

HO-1 [6] = test: HO-1 protein expression by Western blot, DU145; type: cell-based; conditions: DU145, 10 μM, 48 h
Experimental: as §2, §3

HO-1 [7] = test: HO-1 protein expression by Western blot, A549; type: cell-based, human; conditions: A549, 10 μM, 48 h
Experimental: as §2, §3

DU145 cells = test: MTT cell viability assay, DU145; type: cell-based; conditions: 48 h, 1 μM and 10 μM
Experimental: (§4) Experiments were performed on human GBM cell lines U87MG (ATCCC number #HTB-14) and A172 (ATCCC #CRL-1620) on DU145 (ATCC HTB-81) and human lung adenocarcinoma A549 (ATCC CCL-185-LUC2). All cell lines were obtained from the American Type Culture Collection (ATCC, Rockville, MD). Cells were grown in Dulbecco’s modified Eagle’s medium (DMEM) supplemented with 10% of heat-inactivated fetal bovine serum (FBS), 100 U/mL of penicillin, and 100 μg/mL of streptomycin (Sigma-Aldrich, Steinheim, Germany). Cells were incubated at 37 °C in a humidified atmosphere with 5% CO2.
(§5) The effect of selected compounds 7i and 7l–p on cell viability was assessed by performing an MTT assay. Cells were seeded into 96-well plates at a density of 7 × 10^3 cells/well in 100 μL of culture medium. After 24 h, cells were treated with selected compounds at three different concentrations (1 μM, 10 μM, and 50 μM) for 48 h. Following treatments, 0.5 mg/mL of 3-[4,5-dimethylthiazol-2-yl]-2,5-diphenyltetrazolium bromide (MTT) (Sigma-Aldrich) was added to each well and incubated for 4 h at 37 °C. Finally, dimethyl-sulfoxide (DMSO) was used to dissolve formazan salts, and absorbance was measured at 570 nm in a microplate reader (Biotek Synergy-HT). Eight replicate wells were used for each group.

A549 cells = test: MTT cell viability assay, A549; type: cell-based, human; conditions: 48 h, 10 μM
Experimental: as §4, §5

T1 sequence (Q12809 whole entry): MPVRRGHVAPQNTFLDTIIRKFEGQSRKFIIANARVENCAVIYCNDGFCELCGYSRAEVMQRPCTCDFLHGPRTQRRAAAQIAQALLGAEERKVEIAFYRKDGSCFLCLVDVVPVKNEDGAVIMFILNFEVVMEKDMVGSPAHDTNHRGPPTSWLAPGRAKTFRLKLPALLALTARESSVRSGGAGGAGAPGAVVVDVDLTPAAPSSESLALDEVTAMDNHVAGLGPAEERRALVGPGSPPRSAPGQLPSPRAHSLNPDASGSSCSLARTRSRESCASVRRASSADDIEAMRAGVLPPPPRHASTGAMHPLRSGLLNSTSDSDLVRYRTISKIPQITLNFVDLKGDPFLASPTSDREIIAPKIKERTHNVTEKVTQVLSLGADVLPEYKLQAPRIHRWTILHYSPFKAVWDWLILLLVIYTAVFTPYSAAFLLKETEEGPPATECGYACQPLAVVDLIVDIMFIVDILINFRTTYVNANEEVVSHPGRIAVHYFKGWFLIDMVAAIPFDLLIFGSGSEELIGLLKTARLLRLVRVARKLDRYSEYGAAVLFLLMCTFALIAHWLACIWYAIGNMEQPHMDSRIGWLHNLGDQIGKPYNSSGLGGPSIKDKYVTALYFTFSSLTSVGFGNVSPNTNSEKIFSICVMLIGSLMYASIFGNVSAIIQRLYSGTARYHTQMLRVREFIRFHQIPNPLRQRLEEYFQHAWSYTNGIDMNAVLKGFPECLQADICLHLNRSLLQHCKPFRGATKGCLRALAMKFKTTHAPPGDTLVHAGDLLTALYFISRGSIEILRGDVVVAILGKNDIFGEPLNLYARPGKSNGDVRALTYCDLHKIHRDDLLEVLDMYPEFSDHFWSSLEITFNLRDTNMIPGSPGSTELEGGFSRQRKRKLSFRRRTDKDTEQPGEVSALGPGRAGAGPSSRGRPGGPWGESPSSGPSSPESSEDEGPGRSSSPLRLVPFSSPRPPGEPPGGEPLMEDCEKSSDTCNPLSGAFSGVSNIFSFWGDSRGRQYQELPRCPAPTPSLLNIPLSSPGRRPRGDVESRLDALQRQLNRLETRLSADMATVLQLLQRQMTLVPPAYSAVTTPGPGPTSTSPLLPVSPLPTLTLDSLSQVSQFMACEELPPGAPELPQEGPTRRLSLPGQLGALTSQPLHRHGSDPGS

**Q.** With `CN(C(=O)Cn1ccnc1)C(c1ccccc1)c1ccc(Cl)cc1` (centres unmarked) [7l, N-((4-Chlorophenyl)(phenyl)methyl)-2-(1H-imidazol-1-yl)-N-methylacetamide] as the compound, how does the “HO enzymatic activity in cell lysates (in words)” value (HO) read?
**A.** reduced HO activity

**Q.** And the “HO-1 immunoreactivity (in words)” value (HO-1 [1])?
**A.** reduced the immunoreactivity of HO-1

**Q.** What about the inhibition at 1 µM (hERG potassium channel) of the same compound?
**A.** 5.7%

**Q.** And the “VEGF intracellular expression (in words)” value (VEGF)?
**A.** significant reduction

**Q.** And the “HO-1 protein expression (in words)” value (HO-1 [2])?
**A.** reduced HO-1 expression

**Q.** And the microsomal CLint [3]?
**A.** 58.3 µL/min/mg

**Q.** What about the half-life ([3]; read-out: microsomal stability t1/2) of the same compound?
**A.** 1.98 h

**Q.** And the solubility [4]?
**A.** 196 µM (≈ 66.5 µg/mL)

**Q.** For `CN(C(=O)Cn1ccnc1)C(c1ccccc1)c1ccc(I)cc1` (centres unmarked) [7n, 2-(1H-Imidazol-1-yl)-N-((4-iodophenyl)(phenyl)methyl)-N-methylacetamide], which “HO-1 protein expression (in words)” value (HO-1 [5]) is on record?
**A.** enhanced its levels

**Q.** What about the “HO-1 protein expression (in words)” value (HO-1 [2]) of the same compound?
**A.** enhanced its levels

**Q.** And the “HO-1 protein expression (in words)” value (HO-1 [6])?
**A.** reduced HO-1 protein expression

**Q.** Which “HO-1 protein expression (in words)” value (HO-1 [7]) does the source give for `CN(C(=O)Cn1ccnc1)C(c1ccccc1)c1ccc(OCc2ccccc2)cc1` (centres unmarked) [7o, N-((4-(Benzyloxy)phenyl)(phenyl)methyl)-2-(1H-imidazol-1-yl)-N-methylacetamide] here?
**A.** upregulated its expression

**Q.** What about the “cell viability reduction (in words)” value (DU145 cells) of the same compound?
**A.** had efficacies

**Q.** And the “cell viability reduction (in words)” value (A549 cells)?
**A.** weak effect
